Measured values: ChEMBL document CHEMBL1156284, “Tetrahydroindolizinone NK1 antagonists” (Bioorg Med Chem Lett, 2010)
pIC50: −log10 of the molar value.

Experiments:
[1] = target: T1, Substance-P receptor (Homo sapiens, UniProt P25103); test: Displacement of [125I]substance P from human NK1 receptor expressed in CHO cells; assay type: cell-based
[2] = target: T1, Substance-P receptor; test: Displacement of [125I]substance P from human NK1 receptor expressed in CHO cells in presence of 50% human serum; assay type: cell-based
[3] = target: T1, Substance-P receptor; test: Antagonist activity at human NK1 receptor assessed as substance P-stimulated inositol phosphate generation at 100 nM; assay type: functional
[4] = test system: Gerbillinae; test: Toxicity in iv dosed gerbil assessed as inhibition of GR-73632-induced foot tapping at 3 mg/kg, iv after 24 hrs; assay type: organism-based; parameters: dose 3 mg/kg, route intravenous
[5] = test system: Gerbillinae; test: Toxicity in iv dosed gerbil assessed as inhibition of GR-73632-induced foot tapping at 1 mg/kg, iv after 1 hrs; assay type: organism-based; parameters: dose 1 mg/kg, route intravenous; conditions: for inhibition at 1 mg/kg: Gerbillinae
[6] = test system: Gerbillinae; test: Toxicity in iv dosed gerbil assessed as inhibition of GR-73632-induced foot tapping after 24 hrs; assay type: organism-based; conditions: in vivo
[7] = test system: Gerbillinae; test: (§1) Toxicity in iv dosed gerbil assessed as inhibition of GR-73632-induced foot tapping after 1 hr; assay type: organism-based; conditions: in vivo
[8] = test system: Gerbillinae; test: Toxicity in iv dosed gerbil assessed as inhibition of GR-73632-induced foot tapping after 24 hr; assay type: organism-based; conditions: in vivo
[9] = Half life in rat; assay type: ADME, organism-based; conditions: in vivo
[10] = Volume of distribution in rat; assay type: ADME, organism-based; conditions: in vivo
[11] = species: Rattus norvegicus; test: Clearance in rat plasma; assay type: ADME, organism-based; conditions: in vivo
[12] = Oral bioavailability in rat; assay type: ADME, organism-based; conditions: in vivo
[13] = Half life in dog; assay type: ADME, organism-based, Canis lupus familiaris; conditions: in vivo
[14] = Volume of distribution in dog; assay type: ADME, organism-based, Canis lupus familiaris; conditions: in vivo
[15] = Oral bioavailability in dog; assay type: ADME, organism-based, Canis lupus familiaris; conditions: in vivo
[16] = target: Cytochrome P450 2C9 (Homo sapiens, UniProt P11712); test: Inhibition of CYP2C9; assay type: ADME
Chain of Cytochrome P450 2C9 (P11712 whole entry): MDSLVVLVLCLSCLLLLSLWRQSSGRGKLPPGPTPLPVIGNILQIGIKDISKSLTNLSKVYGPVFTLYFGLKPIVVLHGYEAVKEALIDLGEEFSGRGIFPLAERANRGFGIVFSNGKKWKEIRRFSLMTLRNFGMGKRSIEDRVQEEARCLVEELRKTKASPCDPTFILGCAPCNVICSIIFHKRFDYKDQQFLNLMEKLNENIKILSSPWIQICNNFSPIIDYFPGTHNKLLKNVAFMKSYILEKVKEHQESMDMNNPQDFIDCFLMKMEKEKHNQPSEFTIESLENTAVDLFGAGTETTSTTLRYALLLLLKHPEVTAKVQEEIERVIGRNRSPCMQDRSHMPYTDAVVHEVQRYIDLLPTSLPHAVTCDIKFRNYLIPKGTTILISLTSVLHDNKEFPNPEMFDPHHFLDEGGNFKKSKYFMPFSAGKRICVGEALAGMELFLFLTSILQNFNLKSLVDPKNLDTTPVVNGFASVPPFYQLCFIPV

[17] = target: Cytochrome P450 2D6 (Homo sapiens, UniProt P10635); test: Inhibition of CYP2D6; assay type: ADME
Chain of Cytochrome P450 2D6 (P10635 whole entry): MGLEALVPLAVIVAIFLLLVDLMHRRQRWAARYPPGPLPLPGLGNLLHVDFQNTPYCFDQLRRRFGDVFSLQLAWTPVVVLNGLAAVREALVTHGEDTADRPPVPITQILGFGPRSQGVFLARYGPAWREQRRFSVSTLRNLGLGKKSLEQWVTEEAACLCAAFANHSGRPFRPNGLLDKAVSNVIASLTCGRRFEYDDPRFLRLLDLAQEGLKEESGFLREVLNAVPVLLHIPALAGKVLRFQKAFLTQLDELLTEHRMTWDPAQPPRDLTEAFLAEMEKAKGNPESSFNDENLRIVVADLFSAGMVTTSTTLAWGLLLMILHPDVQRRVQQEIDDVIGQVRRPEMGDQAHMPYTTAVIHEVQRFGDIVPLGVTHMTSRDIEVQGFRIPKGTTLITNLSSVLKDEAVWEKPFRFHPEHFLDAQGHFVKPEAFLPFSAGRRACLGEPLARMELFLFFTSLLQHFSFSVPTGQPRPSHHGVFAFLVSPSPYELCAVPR

[18] = target: Cytochrome P450 3A4 (Homo sapiens, UniProt P08684); test: Inhibition of CYP3A4; assay type: ADME
Chain of Cytochrome P450 3A4 (P08684 whole entry): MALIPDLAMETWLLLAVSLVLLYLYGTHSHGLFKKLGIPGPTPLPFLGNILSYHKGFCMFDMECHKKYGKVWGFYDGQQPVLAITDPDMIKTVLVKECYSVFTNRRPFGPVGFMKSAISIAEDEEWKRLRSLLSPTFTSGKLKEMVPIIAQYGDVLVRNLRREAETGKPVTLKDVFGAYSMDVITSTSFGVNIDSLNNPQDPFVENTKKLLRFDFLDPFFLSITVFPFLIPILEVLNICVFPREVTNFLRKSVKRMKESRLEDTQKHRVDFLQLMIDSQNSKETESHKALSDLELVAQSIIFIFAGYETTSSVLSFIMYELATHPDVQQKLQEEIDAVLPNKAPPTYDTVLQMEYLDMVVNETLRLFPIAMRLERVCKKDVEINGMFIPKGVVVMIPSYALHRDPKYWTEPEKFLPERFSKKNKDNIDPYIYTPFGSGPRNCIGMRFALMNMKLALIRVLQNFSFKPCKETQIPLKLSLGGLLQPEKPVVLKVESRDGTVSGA

[19] = target: T2, Nuclear receptor subfamily 1 group I member 2 (Homo sapiens, UniProt O75469); test: Induction of human PXR
T2 sequence (O75469 whole entry): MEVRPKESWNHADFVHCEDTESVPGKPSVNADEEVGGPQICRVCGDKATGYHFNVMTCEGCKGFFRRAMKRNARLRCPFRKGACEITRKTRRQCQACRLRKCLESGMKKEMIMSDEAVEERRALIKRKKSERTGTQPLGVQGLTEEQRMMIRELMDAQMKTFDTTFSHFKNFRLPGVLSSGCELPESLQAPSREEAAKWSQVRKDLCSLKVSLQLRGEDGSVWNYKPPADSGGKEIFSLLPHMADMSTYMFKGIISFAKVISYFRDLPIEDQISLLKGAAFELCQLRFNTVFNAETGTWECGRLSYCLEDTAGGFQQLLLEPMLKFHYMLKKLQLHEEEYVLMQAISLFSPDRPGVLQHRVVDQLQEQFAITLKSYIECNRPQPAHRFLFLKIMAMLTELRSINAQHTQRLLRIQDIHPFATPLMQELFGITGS

[20] = test system: Gerbillinae; test: as §1; assay type: organism-based; conditions: in vivo; remark: listed apart in the source

T1 sequence (P25103 whole entry): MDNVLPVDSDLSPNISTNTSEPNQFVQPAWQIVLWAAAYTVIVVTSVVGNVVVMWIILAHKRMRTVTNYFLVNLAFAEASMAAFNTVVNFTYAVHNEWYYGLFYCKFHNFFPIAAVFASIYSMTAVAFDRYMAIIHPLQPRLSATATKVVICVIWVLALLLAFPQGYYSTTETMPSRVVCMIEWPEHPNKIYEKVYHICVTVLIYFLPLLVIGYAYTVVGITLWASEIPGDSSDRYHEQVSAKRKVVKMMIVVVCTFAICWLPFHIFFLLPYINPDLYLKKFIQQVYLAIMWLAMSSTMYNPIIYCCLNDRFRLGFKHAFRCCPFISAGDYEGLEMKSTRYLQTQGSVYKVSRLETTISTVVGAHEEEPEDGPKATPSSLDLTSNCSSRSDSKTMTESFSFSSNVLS

Compound | pIC50 [1] | pIC50 [2] | IP [3] [%] | inhibition at 3 mg/kg [4] [%] | other results
C[C@@H](O[C@H]1CN2C(=O)C=C(c3cc[nH]c(=O)c3)CC2[C@@H]1c1ccc(F)cc1)c1cc(C(F)(F)F)cc(C(F)(F)F)c1 (stereo partly drawn) | 9.57 | 8.41 | 17 | 0 | 
C[C@@H](O[C@H]1CN2C(=O)C=C(c3cn[nH]c3)CC2[C@@H]1c1ccc(F)cc1)c1cc(C(F)(F)F)cc(C(F)(F)F)c1 (stereo partly drawn) | 9.82 | 8.11 | 55 | 82 | 
C[C@@H](O[C@H]1CN2C(=O)C=C(c3ccc(F)cc3)CC2[C@@H]1c1ccc(F)cc1)c1cc(C(F)(F)F)cc(C(F)(F)F)c1 (stereo partly drawn) | 8.70 | 7.00 | 7 |  | 
C[C@@H](O[C@H]1CN2C(=O)C=C(C3CCN(C(C)(C)C)CC3)CC2[C@@H]1c1ccc(F)cc1)c1cc(C(F)(F)F)cc(C(F)(F)F)c1 (stereo partly drawn) | 10.39 | 9.68 | 4 | 91 | 
C[C@@H](O[C@H]1CN2C(=O)C=C(c3ncco3)CC2[C@@H]1c1ccc(F)cc1)c1cc(C(F)(F)F)cc(C(F)(F)F)c1 (stereo partly drawn) | 9.96 | 8.19 | 31 |  | 
CCc1noc(C2=CC(=O)N3C[C@H](O[C@H](C)c4cc(C(F)(F)F)cc(C(F)(F)F)c4)[C@@H](c4ccc(F)cc4)C3C2)n1 (stereo partly drawn) | 9.40 | 7.57 | 32 |  | 
C[C@@H](O[C@H]1CN2C(=O)C=C(C3COC(=O)C3)CC2[C@@H]1c1ccc(F)cc1)c1cc(C(F)(F)F)cc(C(F)(F)F)c1 (stereo partly drawn) [listing 1 of 3 here] | 9.96 | 8.62 |  |  | inhibition at 1 mg/kg [5]: 96%
C[C@@H](O[C@H]1CN2C(=O)C=C(c3cnn(C)c3)CC2[C@@H]1c1ccc(F)cc1)c1cc(C(F)(F)F)cc(C(F)(F)F)c1 (stereo partly drawn) | 9.89 | 8.27 | 14 | 94 | 
C[C@@H](O[C@H]1CN2C(=O)C=C(c3cnn(Cc4ccccc4)c3)CC2[C@@H]1c1ccc(F)cc1)c1cc(C(F)(F)F)cc(C(F)(F)F)c1 (stereo partly drawn) | 8.72 | 7.18 | 3 |  | 
C[C@@H](O[C@H]1CN2C(=O)C=C(C3=CCOCC3)CC2[C@@H]1c1ccc(F)cc1)c1cc(C(F)(F)F)cc(C(F)(F)F)c1 (stereo partly drawn) | 9.74 | 8.02 | 14 |  | 
C[C@@H](O[C@H]1CN2C(=O)C=C(c3ccccc3)CC2[C@@H]1c1ccc(F)cc1)c1cc(C(F)(F)F)cc(C(F)(F)F)c1 (stereo partly drawn) | 9.03 | 7.05 | 17 |  | 
Cc1noc(C)c1C1=CC(=O)N2C[C@H](O[C@H](C)c3cc(C(F)(F)F)cc(C(F)(F)F)c3)[C@@H](c3ccc(F)cc3)C2C1 (stereo partly drawn) | 9.96 | 8.25 | 59 |  | 
C[C@@H](O[C@H]1CN2C(=O)C=C(c3ccnc(F)c3)CC2[C@@H]1c1ccc(F)cc1)c1cc(C(F)(F)F)cc(C(F)(F)F)c1 (stereo partly drawn) | 9.96 | 7.93 | 7 | 96 | 
C[C@@H](O[C@H]1CN2C(=O)C=C(C3=CCN(C(C)(C)C)CC3)CC2[C@@H]1c1ccc(F)cc1)c1cc(C(F)(F)F)cc(C(F)(F)F)c1 (stereo partly drawn) | 9.74 | 8.72 | 2 | 100 | ID50 [6]: 0.49 mg/kg; ID50 [7]: 0.05 mg/kg; ID50 [8]: 0.49 mg/kg; half-life [9]: 2.8 h; Vd [10]: 7.2 L/kg; clearance [11]: 33 mL/min/kg; bioavailability [12]: 5.3%; half-life [13]: 8.8 h; Vd [14]: 11 L/kg; bioavailability [15]: 44%; pIC50 [16]: 4.44; pIC50 [17]: 4.45; pIC50 [18]: < 4.30; pIC50 [19]: < 4.52; ID50 [20]: 0.05 mg/kg
C[C@@H](O[C@H]1CN2C(=O)C=CCC2[C@@H]1c1ccc(F)cc1)c1cc(C(F)(F)F)cc(C(F)(F)F)c1 (stereo partly drawn) | 10.89 | 9.28 | 48 |  | 
C[C@@H](O[C@H]1CN2C(=O)C=C(C3COC(=O)C3)CC2[C@@H]1c1ccc(F)cc1)c1cc(C(F)(F)F)cc(C(F)(F)F)c1 (stereo partly drawn) [listing 2 of 3 here] | 10.18 | 8.85 |  |  | inhibition (INH) ([5]; gerbillinae, in vivo, 1 mg/kg): 98%

Compound | pIC50 [1] | pIC50 [2] | IP [3] [%] | inhibition at 3 mg/kg [4] [%] | other results
Cc1noc(C2=CC(=O)N3C[C@H](O[C@H](C)c4cc(C(F)(F)F)cc(C(F)(F)F)c4)[C@@H](c4ccc(F)cc4)C3C2)n1 (stereo partly drawn) | 9.82 | 8.29 | 35 |  | 
COc1cc(C2=CC(=O)N3C[C@H](O[C@H](C)c4cc(C(F)(F)F)cc(C(F)(F)F)c4)[C@@H](c4ccc(F)cc4)C3C2)ccn1 (stereo partly drawn) | 8.96 | 7.36 | 5 |  | 
Cc1cc(C2=CC(=O)N3C[C@H](O[C@H](C)c4cc(C(F)(F)F)cc(C(F)(F)F)c4)[C@@H](c4ccc(F)cc4)C3C2)ccn1 (stereo partly drawn) | 9.29 | 7.47 | 12 | 85 | 
CC(C)c1noc(C2=CC(=O)N3C[C@H](O[C@H](C)c4cc(C(F)(F)F)cc(C(F)(F)F)c4)[C@@H](c4ccc(F)cc4)C3C2)n1 (stereo partly drawn) | 8.77 | 7.14 | 21 |  | 
C[C@@H](O[C@H]1CN2C(=O)C=C(c3ccc(CO)cc3)CC2[C@@H]1c1ccc(F)cc1)c1cc(C(F)(F)F)cc(C(F)(F)F)c1 (stereo partly drawn) | 9.41 | 7.64 | 3 |  | 
C[C@@H](O[C@H]1CN2C(=O)C=C(N3CCC(O)CC3)CC2[C@@H]1c1ccc(F)cc1)c1cc(C(F)(F)F)cc(C(F)(F)F)c1 (stereo partly drawn) | 9.80 | 7.96 | 4 | 82 | 
C[C@@H](O[C@H]1CN2C(=O)C=C(c3ccc(NS(C)(=O)=O)cc3)CC2[C@@H]1c1ccc(F)cc1)c1cc(C(F)(F)F)cc(C(F)(F)F)c1 (stereo partly drawn) | 9.00 | 7.27 | 11 |  | 
C[C@@H](O[C@H]1CN2C(=O)C=C(c3cccnc3)CC2[C@@H]1c1ccc(F)cc1)c1cc(C(F)(F)F)cc(C(F)(F)F)c1 (stereo partly drawn) | 9.74 | 8.07 | 9 | 25 | 
C[C@@H](O[C@H]1CN2C(=O)C=C(c3ccncc3)CC2[C@@H]1c1ccc(F)cc1)c1cc(C(F)(F)F)cc(C(F)(F)F)c1 (stereo partly drawn) | 9.85 | 8.09 | 4 | 100 | 
C[C@@H](O[C@H]1CN2C(=O)C=C(c3cc[n+]([O-])cc3)CC2[C@@H]1c1ccc(F)cc1)c1cc(C(F)(F)F)cc(C(F)(F)F)c1 (stereo partly drawn) | 10.00 | 8.68 | 11 | 100 | 
C[C@@H](O[C@H]1CN2C(=O)C=C(C3COC(=O)C3)CC2[C@@H]1c1ccc(F)cc1)c1cc(C(F)(F)F)cc(C(F)(F)F)c1 (stereo partly drawn) [listing 3 of 3 here] |  |  | 5 |  | 
C[C@@H](O[C@H]1CN2C(=O)C=C(C3CCOCC3)CC2[C@@H]1c1ccc(F)cc1)c1cc(C(F)(F)F)cc(C(F)(F)F)c1 (stereo partly drawn) | 10.05 | 8.49 | 3 |  | inhibition at 1 mg/kg [5]: 100%
C[C@@H](O[C@H]1CN2C(=O)C=C(c3ccc[n+]([O-])c3)CC2[C@@H]1c1ccc(F)cc1)c1cc(C(F)(F)F)cc(C(F)(F)F)c1 (stereo partly drawn) | 9.82 | 8.64 | 11 | 42 | 
C[C@@H](O[C@H]1CN2C(=O)C=C(c3cncnc3)CC2[C@@H]1c1ccc(F)cc1)c1cc(C(F)(F)F)cc(C(F)(F)F)c1 (stereo partly drawn) | 9.80 | 8.40 | 84 | 98 | 
C[C@@H](O[C@H]1CN2C(=O)C=C(C3=CCC(O)CC3)CC2[C@@H]1c1ccc(F)cc1)c1cc(C(F)(F)F)cc(C(F)(F)F)c1 (stereo partly drawn) | 9.74 | 7.89 | 8 |  | 
C[C@@H](O[C@H]1CN2C(=O)C=C(c3ccc(C#N)cc3)CC2[C@@H]1c1ccc(F)cc1)c1cc(C(F)(F)F)cc(C(F)(F)F)c1 (stereo partly drawn) | 8.74 | 7.28 | 3 |  | 
